Where two headings read alike, the source gives them in different places.
Assays:
[1] = test system: P. aeruginosa 4961
Method: (§1) The MIC assay is a technique used to determine the lowest concentration of a particular antibiotic needed to inhibit visible growth of bacteria. In this method, two fold serial dilutions of the compound were prepared in broth media. An inoculum of overnight bacterial cultures will be prepared in the same broth medium. The serial dilution tubes will be inoculated with 0.025 ml of undiluted over-night culture (1:100), a 1×10-2 dilution (1:10,000), or a 1×10-4 dilution (1:1,000,000) of bacterial suspension. Results were recorded after 24 hour incubation at 35° C. without shaking by measuring OD600. The MIC is determined by the lowest concentration of compound where no growth is visible.

[2] = test system: S. aureus (8324-5)
Method: as §1

[3] = test system: P. aeruginosa 4858
Method: as §1

[4] = test system: S. aureus (Col)
Method: as §1

[5] = test system: P. aeruginosa 4990
Method: as §1

[6] = test system: B. subtilis
Method: as §1

[7] = test system: Streptococcus pneumoniae; conditions: Based on SBA agar (not confirmatory)
Method: as §1

[8] = test system: E. coli (K12)
Method: as §1

[9] = test system: P. aeruginosa 4961; remark: listed apart in the source
Method: (§2) MBC is the lowest concentration of compound required to kill an organism. […] In the case of small colony variants, growth might not occur earlier than 48 hours.

[10] = test system: E. coli (WT)
Method: as §2

[11] = test system: P. aeruginosa 4990; remark: listed apart in the source
Method: as §2

[12] = test system: E. coli (K12); remark: listed apart in the source
Method: as §2

## COCCCCCCCCCN1C[C@H](O)[C@@H](O)[C@H](O)[C@H]1CO.Cl [UV-4B, hydrochloric acid salt of N-(9-Methoxynonyl)deoxynojirimycin]
[1]; Table 3
  MIC: 5000 µg/mL
[1]; UV-4B 0.04 mg/ml
  visible growth: +
[1]; UV-4B 0.08 mg/ml
  visible growth: +
[1]; UV-4B 0.16 mg/ml
  visible growth: +
[1]; UV-4B 0.31 mg/ml
  visible growth: +
[1]; UV-4B 0.63 mg/ml
  visible growth: +
[1]; UV-4B 2.50 mg/ml
  visible growth: +
[1]; UV-4B 5 mg/ml
  visible growth: −
[1]; UV-4B 10 mg/ml
  visible growth: −
[1]; UV-4B 20 mg/ml
  visible growth: −
[2]; Table 3, two independent tests
  MIC: 2500 µg/mL
[2]; Table 4
  MIC: 1250 µg/mL
[2]; Table 4, 0.02 mg/ml
  growth (OD600): + (+ OD600 <0.05)
[2]; Table 4, 0.04 mg/ml
  growth (OD600): + (+ OD600 <0.05)
[2]; Table 4, 0.08 mg/ml
  growth (OD600): + (+ OD600 <0.05)
[2]; Table 4, 0.16 mg/ml
  growth (OD600): + (+ OD600 <0.05)
[2]; Table 4, 0.31 mg/ml
  growth (OD600): + (+ OD600 <0.05)
[2]; Table 4, 0.63 mg/ml
  growth (OD600): + (+ OD600 <0.05)
[2]; Table 4, 2.50 mg/ml
  growth (OD600): − (− OD600 >0.05)
[2]; Table 4, 5 mg/ml
  growth (OD600): − (− OD600 >0.05)
[2]; Table 4, 10 mg/ml
  growth (OD600): − (− OD600 >0.05)
[2]; Table 4, 20 mg/ml
  growth (OD600): − (− OD600 >0.05)
[2]; UV-4B 0.04 mg/ml
  visible growth: +
[2]; UV-4B 0.08 mg/ml
  visible growth: +
[2]; UV-4B 0.16 mg/ml
  visible growth: +
[2]; UV-4B 0.31 mg/ml
  visible growth: +
[2]; UV-4B 0.63 mg/ml
  visible growth: +
[2]; UV-4B 2.50 mg/ml
  visible growth: −
[2]; UV-4B 5 mg/ml
  visible growth: −
[2]; UV-4B 10 mg/ml
  visible growth: −
[2]; UV-4B 20 mg/ml
  visible growth: −
[3]; Table 3
  MIC: 5000 µg/mL
[3]; Table 4
  MIC: 2500 µg/mL
[3]; Table 4, 0.02 mg/ml
  growth (OD600): + (+ OD600 <0.05)
[3]; Table 4, 0.04 mg/ml
  growth (OD600): + (+ OD600 <0.05)
[3]; Table 4, 0.08 mg/ml
  growth (OD600): + (+ OD600 <0.05)
[3]; Table 4, 0.16 mg/ml
  growth (OD600): + (+ OD600 <0.05)
[3]; Table 4, 0.31 mg/ml
  growth (OD600): + (+ OD600 <0.05)
[3]; Table 4, 0.63 mg/ml
  growth (OD600): + (+ OD600 <0.05)
[3]; Table 4, 2.50 mg/ml
  growth (OD600): − (− OD600 >0.05)
[3]; Table 4, 5 mg/ml
  growth (OD600): − (− OD600 >0.05)
[3]; Table 4, 10 mg/ml
  growth (OD600): − (− OD600 >0.05)
[3]; Table 4, 20 mg/ml
  growth (OD600): − (− OD600 >0.05)
[3]; UV-4B 0.63 mg/ml
  visible growth: +
[3]; UV-4B 2.50 mg/ml
  visible growth: +
[3]; UV-4B 5 mg/ml
  visible growth: −
[3]; UV-4B 10 mg/ml
  visible growth: −
[3]; UV-4B 20 mg/ml
  visible growth: −
[4]; Table 3
  MIC: 2500 µg/mL
[4]; Table 4
  MIC: 625 µg/mL
[4]; Table 4, 0.02 mg/ml
  growth (OD600): + (+ OD600 <0.05)
[4]; Table 4, 0.04 mg/ml
  growth (OD600): + (+ OD600 <0.05)
[4]; Table 4, 0.08 mg/ml
  growth (OD600): + (+ OD600 <0.05)
[4]; Table 4, 0.16 mg/ml
  growth (OD600): + (+ OD600 <0.05)
[4]; Table 4, 0.31 mg/ml
  growth (OD600): + (+ OD600 <0.05)
[4]; Table 4, 0.63 mg/ml
  growth (OD600): − (− OD600 >0.05)
[4]; Table 4, 2.50 mg/ml
  growth (OD600): − (− OD600 >0.05)
[4]; Table 4, 5 mg/ml
  growth (OD600): − (− OD600 >0.05)
[4]; Table 4, 10 mg/ml
  growth (OD600): − (− OD600 >0.05)
[4]; Table 4, 20 mg/ml
  growth (OD600): − (− OD600 >0.05)
[4]; UV-4B 0.02 mg/ml
  visible growth: +
[4]; UV-4B 0.04 mg/ml
  visible growth: +
[4]; UV-4B 0.08 mg/ml
  visible growth: +
[4]; UV-4B 0.16 mg/ml
  visible growth: +
[4]; UV-4B 0.31 mg/ml
  visible growth: +
[4]; UV-4B 0.63 mg/ml
  visible growth: +
[4]; UV-4B 2.50 mg/ml
  visible growth: −
[4]; UV-4B 5 mg/ml
  visible growth: −
[4]; UV-4B 10 mg/ml
  visible growth: −
[5]; Table 3
  MIC: 5000 µg/mL
[5]; UV-4B 0.04 mg/ml
  visible growth: +
[5]; UV-4B 0.08 mg/ml
  visible growth: +
[5]; UV-4B 0.16 mg/ml
  visible growth: +
[5]; UV-4B 0.31 mg/ml
  visible growth: +
[5]; UV-4B 0.63 mg/ml
  visible growth: +
[5]; UV-4B 2.50 mg/ml
  visible growth: +
[5]; UV-4B 5 mg/ml
  visible growth: −
[5]; UV-4B 10 mg/ml
  visible growth: −
[5]; UV-4B 20 mg/ml
  visible growth: −
[6]; Table 3
  MIC: 2500 µg/mL
[6]; Table 4
  MIC: 625 µg/mL
[6]; Table 4, 0.02 mg/ml
  growth (OD600): + (+ OD600 <0.05)
[6]; Table 4, 0.04 mg/ml
  growth (OD600): + (+ OD600 <0.05)
[6]; Table 4, 0.08 mg/ml
  growth (OD600): + (+ OD600 <0.05)
[6]; Table 4, 0.16 mg/ml
  growth (OD600): + (+ OD600 <0.05)
[6]; Table 4, 0.31 mg/ml
  growth (OD600): + (+ OD600 <0.05)
[6]; Table 4, 0.63 mg/ml
  growth (OD600): − (− OD600 >0.05)
[6]; Table 4, 2.50 mg/ml
  growth (OD600): − (− OD600 >0.05)
[6]; Table 4, 5 mg/ml
  growth (OD600): − (− OD600 >0.05)
[6]; Table 4, 10 mg/ml
  growth (OD600): − (− OD600 >0.05)
[6]; Table 4, 20 mg/ml
  growth (OD600): − (− OD600 >0.05)
[6]; UV-4B 0.02 mg/ml
  visible growth: +
[6]; UV-4B 0.04 mg/ml
  visible growth: +
[6]; UV-4B 0.08 mg/ml
  visible growth: +
[6]; UV-4B 0.16 mg/ml
  visible growth: +
[6]; UV-4B 0.31 mg/ml
  visible growth: +
[6]; UV-4B 0.63 mg/ml
  visible growth: +
[6]; UV-4B 2.50 mg/ml
  visible growth: −
[6]; UV-4B 5 mg/ml
  visible growth: −
[6]; UV-4B 10 mg/ml
  visible growth: −
[7]; Table 3
  MIC: 10000 µg/mL
[7]; UV-4B 0.04 mg/ml
  visible growth: +
[7]; UV-4B 0.08 mg/ml
  visible growth: +
[7]; UV-4B 0.16 mg/ml
  visible growth: +
[7]; UV-4B 0.31 mg/ml
  visible growth: +
[7]; UV-4B 0.63 mg/ml
  visible growth: +
[7]; UV-4B 2.50 mg/ml
  visible growth: +
[7]; UV-4B 5 mg/ml
  visible growth: +
[7]; UV-4B 10 mg/ml
  visible growth: −
[8]; Table 3
  MIC: 5000 µg/mL
[8]; UV-4B 0.04 mg/ml
  visible growth: +
[8]; UV-4B 0.08 mg/ml
  visible growth: +
[8]; UV-4B 0.16 mg/ml
  visible growth: +
[8]; UV-4B 0.31 mg/ml
  visible growth: +
[8]; UV-4B 0.63 mg/ml
  visible growth: +
[8]; UV-4B 2.50 mg/ml
  visible growth: +
[8]; UV-4B 5 mg/ml
  visible growth: −
[8]; UV-4B 10 mg/ml
  visible growth: −
[8]; UV-4B 20 mg/ml
  visible growth: −
[9]; UV-4B
  MBC: >20000 µg/mL
[9]; UV-4B 2.50 mg/ml
  growth after re-inoculation on BHI agar: +
[9]; UV-4B 5.00 mg/ml
  growth after re-inoculation on BHI agar: +
[9]; UV-4B 10 mg/ml
  growth after re-inoculation on BHI agar: +
[9]; UV-4B 20 mg/ml
  growth after re-inoculation on BHI agar: +
[10]; UV-4B
  MBC: 10000 µg/mL
[10]; UV-4B 2.50 mg/ml
  growth after re-inoculation on BHI agar: +
[10]; UV-4B 5.00 mg/ml
  growth after re-inoculation on BHI agar: +
[10]; UV-4B 10 mg/ml
  growth after re-inoculation on BHI agar: −
[11]; UV-4B
  MBC: >20000 µg/mL
[11]; UV-4B 2.50 mg/ml
  growth after re-inoculation on BHI agar: +
[11]; UV-4B 5.00 mg/ml
  growth after re-inoculation on BHI agar: +
[11]; UV-4B 10 mg/ml
  growth after re-inoculation on BHI agar: +
[11]; UV-4B 20 mg/ml
  growth after re-inoculation on BHI agar: +
[12]; UV-4B
  MBC: 20000 µg/mL
[12]; UV-4B 2.50 mg/ml
  growth after re-inoculation on BHI agar: +
[12]; UV-4B 5.00 mg/ml
  growth after re-inoculation on BHI agar: +
[12]; UV-4B 10 mg/ml
  growth after re-inoculation on BHI agar: +
[12]; UV-4B 20 mg/ml
  growth after re-inoculation on BHI agar: +

Reference: patent US9623016B2, “Antibacterial compounds” (Emergent Virology LLC, priority 2013, dated 2017)
